Experimental data taken from article PMC8799717, “Pharmacological targeting PIKfyve and tubulin as an effective treatment strategy for double-hit lymphoma” (Cell Death Discovery, 2022).

Legend:
Test in all cases: biochemical
Set-up in all cases: KINOMEscan active-site-directed competition binding panel, 468 kinases, percent of DMSO control at 1 uM
Details in all cases: KINOMEscan binding, percent of DMSO control; read-out: Ctrl%
CAMK1 = CAMK1 (Homo sapiens, UniProt Q14012)
CHEK1 = CHEK1 (Homo sapiens, UniProt O14757)
Chain of CHEK1 (O14757 whole entry): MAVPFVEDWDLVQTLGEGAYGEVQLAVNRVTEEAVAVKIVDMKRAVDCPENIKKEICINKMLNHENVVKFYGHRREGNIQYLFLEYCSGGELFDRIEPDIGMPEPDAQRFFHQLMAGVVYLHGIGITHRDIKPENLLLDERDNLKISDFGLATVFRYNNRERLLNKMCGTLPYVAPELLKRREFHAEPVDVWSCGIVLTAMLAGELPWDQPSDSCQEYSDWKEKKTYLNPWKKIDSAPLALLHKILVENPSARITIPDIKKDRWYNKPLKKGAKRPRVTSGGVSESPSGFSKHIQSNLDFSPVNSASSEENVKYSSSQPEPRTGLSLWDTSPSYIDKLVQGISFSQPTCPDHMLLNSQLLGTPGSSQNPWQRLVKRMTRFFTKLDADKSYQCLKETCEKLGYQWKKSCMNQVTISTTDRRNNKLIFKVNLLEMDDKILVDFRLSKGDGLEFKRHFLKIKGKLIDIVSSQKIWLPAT

CSNK1A1 = CSNK1A1 (Homo sapiens, UniProt P48729)
Chain of CSNK1A1 (P48729 whole entry): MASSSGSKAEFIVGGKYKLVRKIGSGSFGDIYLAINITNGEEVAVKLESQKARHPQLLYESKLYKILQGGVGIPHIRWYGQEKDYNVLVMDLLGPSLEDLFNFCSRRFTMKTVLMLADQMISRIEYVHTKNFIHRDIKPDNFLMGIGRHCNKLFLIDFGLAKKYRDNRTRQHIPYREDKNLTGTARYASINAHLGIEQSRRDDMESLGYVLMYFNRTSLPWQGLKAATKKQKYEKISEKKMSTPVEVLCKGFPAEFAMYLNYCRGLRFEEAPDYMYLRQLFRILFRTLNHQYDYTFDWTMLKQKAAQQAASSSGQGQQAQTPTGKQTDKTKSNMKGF

DAPK1 = DAPK1 (Homo sapiens, UniProt P53355)
Chain of DAPK1 (P53355 whole entry): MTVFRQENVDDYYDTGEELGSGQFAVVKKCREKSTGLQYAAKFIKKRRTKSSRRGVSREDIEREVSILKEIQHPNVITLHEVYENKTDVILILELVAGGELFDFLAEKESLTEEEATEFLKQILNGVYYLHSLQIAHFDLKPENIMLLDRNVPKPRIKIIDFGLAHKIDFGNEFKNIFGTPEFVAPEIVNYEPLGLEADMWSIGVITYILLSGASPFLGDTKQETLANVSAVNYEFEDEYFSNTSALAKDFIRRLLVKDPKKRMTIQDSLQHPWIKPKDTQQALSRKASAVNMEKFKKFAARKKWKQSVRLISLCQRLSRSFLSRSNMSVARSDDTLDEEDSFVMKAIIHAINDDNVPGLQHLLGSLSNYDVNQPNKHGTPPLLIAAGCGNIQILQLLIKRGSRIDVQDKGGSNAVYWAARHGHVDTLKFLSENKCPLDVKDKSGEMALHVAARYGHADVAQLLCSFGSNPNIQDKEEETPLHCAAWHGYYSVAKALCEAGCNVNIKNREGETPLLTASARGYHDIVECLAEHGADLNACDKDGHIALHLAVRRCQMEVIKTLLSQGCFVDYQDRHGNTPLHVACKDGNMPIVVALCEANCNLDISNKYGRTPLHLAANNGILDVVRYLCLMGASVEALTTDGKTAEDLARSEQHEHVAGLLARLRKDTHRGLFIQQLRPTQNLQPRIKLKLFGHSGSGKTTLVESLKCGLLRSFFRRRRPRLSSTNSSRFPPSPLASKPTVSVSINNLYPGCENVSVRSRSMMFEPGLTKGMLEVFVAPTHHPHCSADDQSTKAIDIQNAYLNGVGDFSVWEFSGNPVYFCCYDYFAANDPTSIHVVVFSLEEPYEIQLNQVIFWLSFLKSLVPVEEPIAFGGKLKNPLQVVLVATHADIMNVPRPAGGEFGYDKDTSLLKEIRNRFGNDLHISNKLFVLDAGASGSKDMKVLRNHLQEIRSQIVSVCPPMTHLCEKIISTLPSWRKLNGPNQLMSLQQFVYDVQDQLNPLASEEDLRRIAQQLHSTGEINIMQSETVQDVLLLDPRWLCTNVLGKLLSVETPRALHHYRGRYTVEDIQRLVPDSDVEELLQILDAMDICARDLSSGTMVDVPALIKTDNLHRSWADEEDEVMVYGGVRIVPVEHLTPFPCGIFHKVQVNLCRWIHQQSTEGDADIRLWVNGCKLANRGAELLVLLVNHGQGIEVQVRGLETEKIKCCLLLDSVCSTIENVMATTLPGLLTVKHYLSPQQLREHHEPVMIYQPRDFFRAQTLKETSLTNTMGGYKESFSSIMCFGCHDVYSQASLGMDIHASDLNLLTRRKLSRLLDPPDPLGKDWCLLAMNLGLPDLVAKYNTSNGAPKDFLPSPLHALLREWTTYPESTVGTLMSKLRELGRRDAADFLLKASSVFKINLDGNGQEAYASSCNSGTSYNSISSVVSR

DYRK2 = DYRK2 (Homo sapiens, UniProt Q92630)
ERK8 = target: T1, ERK8 (Homo sapiens, UniProt Q8TD08)
T1 construct: gene MAPK15

GAK = GAK (Homo sapiens, UniProt O14976)
HIPK2 = HIPK2 (Homo sapiens, UniProt Q9H2X6)
LRRK2 = LRRK2 (Homo sapiens, UniProt Q5S007)
LRRK2(G2019S) = LRRK2(G2019S) (Homo sapiens, UniProt Q5S007, G2019S)
MAP3K3 = MAP3K3 (Homo sapiens, UniProt Q99759)
MARK4 = MARK4 (Homo sapiens, UniProt Q96L34)
MEK2 = target: T2, MEK2 (Homo sapiens, UniProt P36507)
T2 construct: gene MAP2K2

MKNK1 = MKNK1 (Homo sapiens, UniProt Q9BUB5)
MST3 = target: T3, MST3 (Homo sapiens, UniProt Q9Y6E0)
T3 construct: gene STK24
T3 sequence (Q9Y6E0 whole entry): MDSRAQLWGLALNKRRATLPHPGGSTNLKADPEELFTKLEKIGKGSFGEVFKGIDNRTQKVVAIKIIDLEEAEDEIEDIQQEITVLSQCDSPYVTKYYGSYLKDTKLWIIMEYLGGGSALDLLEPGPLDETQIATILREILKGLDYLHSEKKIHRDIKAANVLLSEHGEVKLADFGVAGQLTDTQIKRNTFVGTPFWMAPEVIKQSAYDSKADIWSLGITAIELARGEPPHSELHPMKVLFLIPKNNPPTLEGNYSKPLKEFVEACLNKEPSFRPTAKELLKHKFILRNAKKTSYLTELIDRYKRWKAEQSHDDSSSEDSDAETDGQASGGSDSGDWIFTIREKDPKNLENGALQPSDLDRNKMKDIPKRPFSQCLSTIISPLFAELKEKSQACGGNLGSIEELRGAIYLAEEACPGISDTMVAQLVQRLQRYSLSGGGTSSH

MYLK2 = MYLK2 (Homo sapiens, UniProt Q9H1R3)
OSR1 = target: T4, OSR1 (Homo sapiens, UniProt O95747)
T4 construct: gene OXSR1

PIK3CA(Q546K) = PIK3CA(Q546K) (Homo sapiens, UniProt P42336, Q546K)
PKN2 = PKN2 (Homo sapiens, UniProt Q16513)
Chain of PKN2 (Q16513 whole entry): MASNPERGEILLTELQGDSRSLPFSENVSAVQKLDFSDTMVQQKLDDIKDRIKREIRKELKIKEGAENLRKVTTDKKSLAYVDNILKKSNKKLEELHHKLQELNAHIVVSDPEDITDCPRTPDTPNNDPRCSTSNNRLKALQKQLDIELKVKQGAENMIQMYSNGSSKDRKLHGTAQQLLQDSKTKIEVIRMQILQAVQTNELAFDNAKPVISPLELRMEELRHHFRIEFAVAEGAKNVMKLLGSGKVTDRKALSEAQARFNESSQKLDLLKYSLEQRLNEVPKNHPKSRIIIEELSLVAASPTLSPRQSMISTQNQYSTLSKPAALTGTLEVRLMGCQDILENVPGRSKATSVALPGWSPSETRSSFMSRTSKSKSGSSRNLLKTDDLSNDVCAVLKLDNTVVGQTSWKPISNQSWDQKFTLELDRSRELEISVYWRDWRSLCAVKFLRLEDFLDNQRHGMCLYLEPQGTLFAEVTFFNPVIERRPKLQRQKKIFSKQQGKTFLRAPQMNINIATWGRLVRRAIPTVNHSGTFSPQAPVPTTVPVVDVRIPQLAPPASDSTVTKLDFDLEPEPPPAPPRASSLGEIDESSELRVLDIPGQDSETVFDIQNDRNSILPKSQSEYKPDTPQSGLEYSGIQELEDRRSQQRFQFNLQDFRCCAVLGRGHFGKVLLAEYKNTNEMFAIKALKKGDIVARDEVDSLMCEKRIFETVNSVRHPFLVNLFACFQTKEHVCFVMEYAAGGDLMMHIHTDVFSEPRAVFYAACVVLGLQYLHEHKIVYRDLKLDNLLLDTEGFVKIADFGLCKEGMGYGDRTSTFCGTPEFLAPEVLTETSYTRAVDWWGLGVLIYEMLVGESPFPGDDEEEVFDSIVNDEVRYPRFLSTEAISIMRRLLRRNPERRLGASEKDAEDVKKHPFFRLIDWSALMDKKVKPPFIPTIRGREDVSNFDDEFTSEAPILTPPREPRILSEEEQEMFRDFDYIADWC

[1] = target: T5, RSK3(Kin.Dom.2-C-terminal) (Homo sapiens, UniProt Q15349)
T5 construct: gene RPS6KA2; Kin.Dom.2-C-terminal

TGFBR1 = TGFBR1 (Homo sapiens, UniProt P36897)
Chain of TGFBR1 (P36897 whole entry): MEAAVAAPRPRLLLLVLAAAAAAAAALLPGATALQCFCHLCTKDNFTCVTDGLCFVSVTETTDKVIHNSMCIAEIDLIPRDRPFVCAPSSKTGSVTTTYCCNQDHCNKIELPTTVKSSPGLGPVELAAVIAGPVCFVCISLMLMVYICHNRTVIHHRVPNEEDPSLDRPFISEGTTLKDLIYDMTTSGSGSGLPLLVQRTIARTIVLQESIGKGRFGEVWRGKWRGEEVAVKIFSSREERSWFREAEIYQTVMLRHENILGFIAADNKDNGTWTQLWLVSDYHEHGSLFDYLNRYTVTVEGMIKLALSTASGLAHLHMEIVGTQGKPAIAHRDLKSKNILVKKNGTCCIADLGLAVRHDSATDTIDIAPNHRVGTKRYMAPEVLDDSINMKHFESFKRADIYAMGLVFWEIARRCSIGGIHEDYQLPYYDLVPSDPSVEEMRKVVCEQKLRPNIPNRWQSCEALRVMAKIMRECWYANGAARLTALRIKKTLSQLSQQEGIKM

TRKC = target: T6, TRKC (Homo sapiens, UniProt Q16288)
T6 construct: gene NTRK3
T6 sequence (Q16288 whole entry): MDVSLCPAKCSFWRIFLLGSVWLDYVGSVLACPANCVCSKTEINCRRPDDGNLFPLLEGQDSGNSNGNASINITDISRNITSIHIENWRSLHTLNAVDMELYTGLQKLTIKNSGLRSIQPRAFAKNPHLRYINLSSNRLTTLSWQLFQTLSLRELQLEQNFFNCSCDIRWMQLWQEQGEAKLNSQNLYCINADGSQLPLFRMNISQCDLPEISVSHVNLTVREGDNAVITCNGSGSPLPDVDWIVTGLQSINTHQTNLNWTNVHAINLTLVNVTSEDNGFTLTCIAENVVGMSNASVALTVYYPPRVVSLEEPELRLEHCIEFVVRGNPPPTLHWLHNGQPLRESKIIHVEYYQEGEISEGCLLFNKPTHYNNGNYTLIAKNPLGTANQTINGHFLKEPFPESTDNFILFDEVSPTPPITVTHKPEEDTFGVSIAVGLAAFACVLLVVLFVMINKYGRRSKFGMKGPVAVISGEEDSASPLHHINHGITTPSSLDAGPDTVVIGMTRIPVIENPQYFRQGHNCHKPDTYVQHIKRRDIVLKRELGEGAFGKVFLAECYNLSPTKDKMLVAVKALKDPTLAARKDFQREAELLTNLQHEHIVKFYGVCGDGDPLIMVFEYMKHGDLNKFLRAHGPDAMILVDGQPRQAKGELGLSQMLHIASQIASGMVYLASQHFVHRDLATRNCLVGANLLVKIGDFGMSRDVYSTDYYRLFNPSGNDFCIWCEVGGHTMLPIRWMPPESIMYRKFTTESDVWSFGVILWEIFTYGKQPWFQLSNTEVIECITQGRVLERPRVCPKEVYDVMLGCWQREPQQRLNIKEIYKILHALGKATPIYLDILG

WNK3 = WNK3 (Homo sapiens, UniProt Q9BYP7)
ZAP70 = ZAP70 (Homo sapiens, UniProt P43403)

`Cc1ccc(NC(=O)c2cccc(C(F)(F)F)c2)cc1Nc1cc(-c2cccnc2)nc2[nH]ccc12` [HZX-02-059] showed a remaining binding at 1 µM (CAMK1) of 100%, a remaining binding at 1 µM (CHEK1) of 88% and a remaining binding at 1 µM (CSNK1A1) of 77%. For the same compound, the remaining binding at 1 µM (DAPK1) was 93%, the remaining binding at 1 µM (DYRK2) was 88% and the remaining binding at 1 µM (ERK8) was 92%. For the same compound, the remaining binding at 1 µM (GAK) was 91%, the remaining binding at 1 µM (HIPK2) was 100% and the remaining binding at 1 µM (LRRK2) was 100%. It also gave a remaining binding at 1 µM (LRRK2(G2019S)) of 92%, a remaining binding at 1 µM (MAP3K3) of 89% and a remaining binding at 1 µM (MARK4) of 100%. The remaining binding at 1 µM (MEK2) was 100%, the remaining binding at 1 µM (MKNK1) was 100% and the remaining binding at 1 µM (MST3) was 100%. The remaining binding at 1 µM (MYLK2) was 100%, the remaining binding at 1 µM (OSR1) was 97% and the remaining binding at 1 µM (PIK3CA(Q546K)) was 66%. For the same compound, the remaining binding at 1 µM (PKN2) was 100%, the remaining binding at 1 µM [1] was 89% and the remaining binding at 1 µM (TGFBR1) was 76%. The remaining binding at 1 µM (TRKC) was 100%, the remaining binding at 1 µM (WNK3) was 100% and the remaining binding at 1 µM (ZAP70) was 76%.
